Assay results from US4210648A, “II-Aminoacyl-5,11-dihydro-6H-pyrido(2,3-B) (1,4)benzodiazepin-6-ones and salts thereof” (Boehringer Ingelheim GmbH, priority 1977, dated 1980).

Columns and labels:
[1] = test system: stress ulcers; experiment: inhibiting effect on the formation of stress ulcers in rats; format: in vivo
Protocol: (§1) The compounds were examined with regard to their inhibiting effect on the formation of stress ulcers in rats and their spasmolytic effect, related to atropine, with consideration of their acute toxicity.
The inhibiting effect on the formation of stress ulcers in rats was determined according to the method of K. Takagi and S. Okabe, Jap.Journ.Pharmac. 18, pp. 9 to 18 (1968). Fed female rats with a body weight between 220 and 260 gm were individually put into small wire cages and were subsequently kept vertically submerged in a water bath which was kept constant at a temperature of 23° C. for 16 hours, so that only the heads and the breastbones of the animals were above the water surface. The test compounds were administered perorally 5 to 10 minutes before. With each substance five animals were treated. 1 ml of a 0.9% physiological sodium chloride solution or 1 ml of a 1% tylose solution was administered to the control animals in the same way. After 18 hours the animals were killed by an overdose of ethyl chloride, the stomachs were excised, cut along the big curvature and spread on a cork plate. The evaluation was carried out according to the methods of Marazzi-Uberti and Turba, Med. Exp. 4, pp. 284 to 292 (1961), and Takagi and Okabe (supra).

[2] = test system: guinea pig colon; experiment: spasmolytic effect in vitro on the guinea pig colon (acetylcholine-induced spasms; comparison atropinesulfate); details: relative to atropine = 1
Protocol: as §1
(§2) The spasmolytic effect was determined in vitro on the guinea pig colon, using the experimental arrangement according to R. Magnus, Pflugers Archiv, 102, pp. 123 (1904). Acetylcholine was taken to induce spasms, the substance for comparison was atropinesulfate. The spasticum was administered one minute before the administration of the spasmolytic substance, and the spasmolytic was allowed to take effect for 1 minute. […] The acute toxicity was determined after peroral administration of the test substance to fasted white mice with a body weight of 18 to 20 gm. The observation period was 14 days. For each dosage a group of six mice was used.

[3] = test system: mouse; experiment: acute toxicity after peroral administration to mice; format: in vivo
Protocol: as §2

[4] = as above; format: in vivo; details: in vivo, po, mouse, observation 14 days
Protocol: as §2

SMILES	Ulcer-inhibition in % (rat) after peroral administr. of 12.5 mg/kg [1] [%]	Ulcer-inhibition in % (rat) after peroral administr. of 25 mg/kg [1] [%]	Ulcer-inhibition in % (rat) after peroral administr. of 50 mg/kg [1] [%]	Spasmolysis (acetylcholine) with regard to Atropin = 1 [2]	animals died at 1500 mg/kg [3]	LD50 at 336 h [4] [mg/kg]	animals died at 1000 mg/kg [3]	animals died at 2000 mg/kg ([3]; 2000 mg/kg)
O=C1Nc2cccnc2N(C(=O)CCCN2CCCC2)c2ccccc21 [E, 5,11-Dihydro-11-(4-pyrrolidino-butyryl)-6H-pyrido[2,3-b][1,4]-benzodiazepin-6-one]	18	58	79	1/190	1 out of 6	> 1500		
CCN1CCCC1CNCC(=O)N1c2ccccc2C(=O)N(C)c2cccnc21 (stereo not drawn) [A, 11-{[(1-Ethyl-2-pyrrolidinyl)methylamino]acetyl}-5,11-dihydro-5-methyl-6H-pyrido[2,3-b][1,4]benzodiazepin-6-one]	90	90	95	1/250	2 out of 4	~1500		
CC1CCCCN1CCC(=O)N1c2ccccc2C(=O)Nc2cccnc21 (stereo not drawn) [C, 5,11-Dihydro-11-[3-(2-methylpiperidino)propionyl]-6H-pyrido-[2,3-b][1,4]benzodiazepin-6-one]	79	84	95	1/50		> 1000	1 out of 5	
O=C1Nc2cccnc2N(C(=O)CCN2CCCCC2)c2ccccc21 [D, 5,11-Dihydro-11-(3-piperidinopropionyl)-6H-pyrido [2,3-b][1,4]-benzodiazepin-6-one]	58	69	84	1/125		~2000		3 out of 5
COC1CCN(CC(=O)N2c3ccccc3C(=O)Nc3cccnc32)CC1 [B, 5,11-Dihydro-11-[(4-methoxypiperidino)acetyl]-6H-pyrido [2,3-b]-[1,4]benzodiazepin-6-one]	53	79	89	1/125		> 1000	2 out of 5	
